Data on two molecules can be found in patent US20020128438A1, “DNA cassette for the production of secretable recombinant trimeric TRAIL proteins, tetracycline/ doxycycline-inducible adeno-associated virus vector, their combination and use in gene therapy” (priority 2000, published 2002).

*1 amine or outer side, *2 acyl side, *3 side chain or, on linkers, in order; H or OH if unused. Where a SMILES comes first, the peptide text is derived from it. Bridges are numbered along the chain shown (N, C = ends). Roman numbers before positions name the chains, in order. [ ]: non-standard residue; d: D form. Actinocin(9to1) = Cc1c2oc3c(C)ccc(C(=O)[*:1])c3nc-2c(C(=O)[*:2])c(N)c1=O; NMeV = CN[C@H](C(=O)O)C(C)C; Sar = CNCC(=O)O

The subject of data set [1] is various cancer cell lines.
The subject of data set [2] is mice. To be noted: systemic delivery; cited from earlier work.
Data set [3] relates to monkey. The settings on record: cited from earlier work.

In the case of `Cc1c2oc3c(C)ccc(C(=O)N[C@@H]4C(=O)N[C@H](C(C)C)C(=O)N5CCC[C@H]5C(=O)N(C)CC(=O)N(C)[C@@H](C(C)C)C(=O)O[C@@H]4C)c3nc-2c(C(=O)N[C@@H]2C(=O)N[C@H](C(C)C)C(=O)N3CCC[C@H]3C(=O)N(C)CC(=O)N(C)[C@@H](C(C)C)C(=O)O[C@@H]2C)c(N)c1=O` [ActD, Actinomycin D] (I: T[dV]P[Sar][NMeV] / II: T[dV]P[Sar][NMeV]; ester I:1-I:C, II:1-II:C; linker I:N-II:N via Actinocin(9to1)), the “concentration at which enhancing activity of ActD was obtained” value in data set [1] (enhancement of TRAIL-induced apoptosis) worked out at 100 ng/mL. Moreover, the “effect of ActD on TRAIL-induced apoptosis” value in data set [1] (various cancer cell lines) is “greatly enhanced”.

On to “TRAIL: TNF family member, type II transmembrane apoptosis-inducing ligand”, for which the cytotoxicity in mice result in data set [2] is listed as “no detectable cytotoxicity”. Besides, the cytotoxicity in monkey entry in data set [3] is “no detectable cytotoxicity”.
